What all share (experiment): growth of human tumour cells (NCI), 48 h
Experiment [1] relates to MALME-3M melanoma.
Experiment [2] concerns TK-10 renal.
Experiment [3] relates to SNB-75 CNS.
The test system of experiment [4] is EKVX NSCLC.
Experiment [5] concerns NCI-H522 lung.
Experiment [6] deals with A498 renal.
Experiment [7] deals with SK-MEL-28 melanoma.
Experiment [8] relates to OVCAR-3 ovarian.
In experiment [9] the test system is SN12C renal.
Experiment [10] relates to HOP-62 NSCLC.
The test system of experiment [11] is HL-60(TB) leukemia.
Experiment [12] deals with HT29 colon.

Each structure is given as a SMILES string.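 Results reflect a 48-hour exposure of cells in 96-well plates to compound at five concentrations. The concentration for full growth arrest is given as TGI.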

For the molecule `CC1=NN(c2ccccc2)C(=O)/C1=C1\SC(c2ccccc2)(c2ccccc2)c2ccccc21`, the TGI in experiment [1], in experiment [2], in [3], in [4], in experiment [5] and in experiment [6] was above 100 µM in each case. The TGI in experiment [7], in experiment [8], in experiment [9], in experiment [10], in experiment [11] and in experiment [12] was above 100 µM in each case.
In the case of `CCO/C(O)=c1/s/c(=C2/SC(=S)N(c3ccc(C)cc3)C2=O)n(-c2ccccc2)c1=N`, the TGI in experiment [1] was above 100 µM; in experiment [2], above 100 µM; in experiment [3] it was 22 µM; in [4], above 100 µM; in experiment [5], above 100 µM; in experiment [6], above 100 µM. The TGI in [7] is above 76.5 µM; in [8], above 100 µM; in [9], above 100 µM; in experiment [10], 81.9 µM; in experiment [11] it was above 100 µM; in experiment [12], above 100 µM.
Consider `CCOC(=O)CCCN`, for which the TGI in [1], in experiment [2], in experiment [3], in experiment [4], in experiment [5] and in [6] was above 100 µM each time. In addition, the TGI in [7], in [8], in [9], in experiment [10], in experiment [11] and in experiment [12] was above 100 µM each time.
Take `COc1cc(O)c2c(=O)c3cccc(C)c3[nH]c2c1`: the TGI in experiment [1], in experiment [2], in experiment [3], in experiment [4], in experiment [5] and in [6] was above 10 µM in each case. Also, the TGI in [7], in experiment [8], in experiment [9], in [10], in experiment [11] and in experiment [12] was above 10 µM each time.
For the molecule `CS(=O)(=O)N(CCC#N)c1ccc(/C=C2\N=C(c3ccccc3Cl)OC2=O)cc1`, the TGI in experiment [1], in experiment [2], in [3], in experiment [4], in [5] and in experiment [6] was above 100 µM in each case. Further, the TGI in experiment [7], in experiment [8], in experiment [9], in [10], in experiment [11] and in experiment [12] was above 100 µM throughout.
On to `CCN(CC)c1c(-c2c(OC(C)C)c(=O)c2=O)c(=O)n2ccsc2c1OC(C)=O`, for which the TGI in experiment [1], in [2], in experiment [3], in experiment [4], in experiment [5] and in experiment [6] was above 100 µM in each case. In addition, the TGI in [7], in [8], in experiment [9], in experiment [10], in experiment [11] and in [12] was above 100 µM in each case.
For the molecule `O=C1c2cccnc2S(=O)(=O)N1c1ccc(Br)cc1`, the TGI in experiment [1], in [2], in experiment [3], in experiment [4], in experiment [5] and in [6] was above 100 µM each time. Moreover, the TGI in [7] is above 100 µM; in experiment [8], above 100 µM; in experiment [9] it was above 100 µM; in experiment [10] it was above 100 µM; in [11], 28.1 µM; in experiment [12], above 100 µM.
Consider `Cc1cc(C)c2c(-c3ccccc3)cc(=O)[nH]c2c1`, for which the TGI in experiment [1], in experiment [2], in experiment [3], in [4], in experiment [5] and in experiment [6] was above 100 µM throughout. Besides, the TGI in experiment [7], in experiment [8], in experiment [9], in [10], in experiment [11] and in experiment [12] was above 100 µM throughout.
`CN(C)CC1CCC/C(=C\c2ccc(Cl)c(Cl)c2)C1=O` (stereo not drawn): the TGI in experiment [1] stood at 20.3 µM; in experiment [2], 8.19 µM; in experiment [3], 21.2 µM; in experiment [4], 25.5 µM; in experiment [5], 4.1 µM; in experiment [6], 26.9 µM. The TGI in experiment [7] is 11.4 µM; in experiment [8], 13.4 µM; in [9], 8.79 µM; in experiment [10] it was 26.8 µM; in experiment [11], 4.06 µM; in [12], above 33.9 µM.
